Data on eleven compounds can be found in US11492335B2, “Aryl or heteroaryl triazolone derivatives or salts thereof, or pharmaceutical compositions comprising the same” (YUHAN CORPORATION, priority 2018, dated 2022).

As usually defined, the IC50 is the concentration needed to halve the response being measured.

Format in all cases: biochemical
In assay [1] the target is T1, recombinant human MAO-B (monoamine oxidase-B) (Homo sapiens, UniProt P27338).
T1 construct: purchased Sigma-Aldrich
T1 sequence (P27338 1-520): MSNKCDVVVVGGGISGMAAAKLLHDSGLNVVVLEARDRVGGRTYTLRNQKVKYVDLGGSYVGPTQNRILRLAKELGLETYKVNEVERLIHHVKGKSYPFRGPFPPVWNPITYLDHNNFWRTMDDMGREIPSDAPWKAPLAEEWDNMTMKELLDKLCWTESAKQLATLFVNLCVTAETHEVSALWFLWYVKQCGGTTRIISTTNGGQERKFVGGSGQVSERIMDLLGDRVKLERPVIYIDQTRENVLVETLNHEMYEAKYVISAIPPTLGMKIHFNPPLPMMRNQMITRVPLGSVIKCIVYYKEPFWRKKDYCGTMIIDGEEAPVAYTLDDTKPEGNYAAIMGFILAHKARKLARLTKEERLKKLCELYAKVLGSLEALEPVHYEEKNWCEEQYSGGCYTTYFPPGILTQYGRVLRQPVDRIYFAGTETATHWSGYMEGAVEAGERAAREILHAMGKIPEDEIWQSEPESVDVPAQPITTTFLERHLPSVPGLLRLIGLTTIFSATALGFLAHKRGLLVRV
Kind of assay: Activity on recombinant human MAO-B, Amplex Red method, 1 mM benzylamine substrate. Particulars: read-out: Inhibitory Activity (IC50, nM) MAO-B. The method in brief: (§1)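 8-point, 1:3 dose-response, four-parameter logistic IC50 from reduction in fluorescence rate versus DMSO control. HRP/Amplex Red detection of H2O2 (ex 544, em 590 nm) after 30 min, 37 °C compound–enzyme preincubation in pH 7.4 phosphate buffer. MAO-A substrate: 0.5 mM tyramine; MAO-B: 1 mM benzylamine.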

Assay [2] concerns the target T2, recombinant human DAO (diamine oxidase) (Homo sapiens, UniProt P19801).
T2 construct: purchased R&D systems
T2 sequence (P19801 20-751): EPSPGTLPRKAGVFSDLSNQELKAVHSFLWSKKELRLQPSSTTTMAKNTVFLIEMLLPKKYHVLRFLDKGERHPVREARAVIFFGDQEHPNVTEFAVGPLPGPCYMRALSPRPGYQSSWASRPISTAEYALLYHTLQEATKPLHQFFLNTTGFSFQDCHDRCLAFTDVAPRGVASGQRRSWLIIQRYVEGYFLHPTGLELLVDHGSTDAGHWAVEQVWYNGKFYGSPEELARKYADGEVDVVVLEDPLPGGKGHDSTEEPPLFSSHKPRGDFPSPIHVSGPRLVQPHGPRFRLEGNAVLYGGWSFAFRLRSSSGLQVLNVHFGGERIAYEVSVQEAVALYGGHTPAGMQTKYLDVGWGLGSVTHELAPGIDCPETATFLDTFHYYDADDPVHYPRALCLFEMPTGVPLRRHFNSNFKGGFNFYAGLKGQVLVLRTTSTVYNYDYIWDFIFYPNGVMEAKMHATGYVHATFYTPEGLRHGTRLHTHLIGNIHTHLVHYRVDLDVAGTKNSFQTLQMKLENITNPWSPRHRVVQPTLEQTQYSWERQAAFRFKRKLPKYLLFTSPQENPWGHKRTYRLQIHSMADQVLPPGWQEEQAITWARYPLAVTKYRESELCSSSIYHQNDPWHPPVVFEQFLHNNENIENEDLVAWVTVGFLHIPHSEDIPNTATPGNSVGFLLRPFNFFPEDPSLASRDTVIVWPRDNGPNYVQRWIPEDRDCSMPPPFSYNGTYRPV
Nature of the assay: Activity on recombinant human DAO, Amplex Red method, 1 mM putrescine substrate. Particulars: recombinant human DAO, read-out: Inhibitory Activity (IC50, nM) DAO. The gist of the method: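 Inhibition of recombinant human DAO (diamine oxidase, R&D systems) was assessed with the Amplex Red Hydrogen Peroxide Assay Kit. Hydrogen peroxide produced from 1 mM putrescine was detected through an HRP-coupled reaction that converts Amplex Red into fluorescent resorufin, read at 544 nm excitation and 590 nm emission. IC50 values came from four-parameter logistic fits in GraphPad Prism.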

The target of the next assay is T3, recombinant human VAP-1 (Homo sapiens, UniProt Q16853).
T3 construct: purchased R&D systems
T3 sequence (Q16853 1-763): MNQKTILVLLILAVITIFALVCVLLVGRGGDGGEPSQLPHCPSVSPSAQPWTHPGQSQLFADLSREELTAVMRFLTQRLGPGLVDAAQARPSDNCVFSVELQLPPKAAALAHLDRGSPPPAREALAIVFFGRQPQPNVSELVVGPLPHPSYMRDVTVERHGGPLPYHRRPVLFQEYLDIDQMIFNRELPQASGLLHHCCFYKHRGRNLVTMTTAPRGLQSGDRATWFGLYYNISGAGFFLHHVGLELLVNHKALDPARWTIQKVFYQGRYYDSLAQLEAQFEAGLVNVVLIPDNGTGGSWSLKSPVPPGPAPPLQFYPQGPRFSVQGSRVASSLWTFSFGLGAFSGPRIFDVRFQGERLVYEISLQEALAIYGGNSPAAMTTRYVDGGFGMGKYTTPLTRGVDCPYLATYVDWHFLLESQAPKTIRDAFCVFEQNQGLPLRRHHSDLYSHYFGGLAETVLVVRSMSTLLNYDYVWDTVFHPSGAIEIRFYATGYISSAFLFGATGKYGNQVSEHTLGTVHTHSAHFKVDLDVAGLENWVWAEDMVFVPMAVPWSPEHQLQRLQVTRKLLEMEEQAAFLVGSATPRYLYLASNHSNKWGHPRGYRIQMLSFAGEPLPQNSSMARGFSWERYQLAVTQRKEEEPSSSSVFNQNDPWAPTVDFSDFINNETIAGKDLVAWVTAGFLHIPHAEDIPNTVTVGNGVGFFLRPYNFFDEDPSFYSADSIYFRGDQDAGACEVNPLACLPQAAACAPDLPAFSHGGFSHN
Nature of the assay: Activity on recombinant human VAP-1, Amplex Red HRP-coupled hydrogen peroxide assay, benzylamine substrate. The conditions noted are these: recombinant human VAP-1, benzylamine substrate, read-out: Inhibitory Activity (IC50, nM) human VAP-1. The method in brief:
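Compounds were preincubated with purified enzyme in 50 mM sodium phosphate pH 7.4 at 37 °C for 30 min, then 200 uM Amplex Red, 1 mM benzylamine and 1 U/mL HRP were added. Resorufin fluorescence (ex 544/em 590 nm) was followed over 1-2 h; IC50 came from 4-parameter fits of signal-rate inhibition.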

Assay [3] concerns the target T4, recombinant human MAO-A (monoamine oxidase-A) (Homo sapiens, UniProt P21397).
T4 construct: purchased Sigma-Aldrich
T4 sequence (P21397 1-527): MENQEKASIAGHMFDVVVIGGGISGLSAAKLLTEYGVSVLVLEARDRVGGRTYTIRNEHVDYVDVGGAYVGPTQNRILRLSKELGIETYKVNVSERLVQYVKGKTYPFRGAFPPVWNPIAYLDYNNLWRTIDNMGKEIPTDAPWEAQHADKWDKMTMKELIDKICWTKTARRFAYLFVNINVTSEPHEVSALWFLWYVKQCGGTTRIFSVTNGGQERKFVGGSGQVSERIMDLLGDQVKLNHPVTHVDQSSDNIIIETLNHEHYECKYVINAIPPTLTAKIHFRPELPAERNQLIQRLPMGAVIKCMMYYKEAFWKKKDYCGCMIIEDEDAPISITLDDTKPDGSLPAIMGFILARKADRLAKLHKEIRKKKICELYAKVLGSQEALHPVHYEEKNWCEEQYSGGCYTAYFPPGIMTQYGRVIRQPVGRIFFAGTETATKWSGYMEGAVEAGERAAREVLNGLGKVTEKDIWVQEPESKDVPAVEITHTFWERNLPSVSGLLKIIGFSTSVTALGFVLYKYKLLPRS
Nature of the assay: Activity on recombinant human MAO-A, Amplex Red method, 0.5 mM tyramine substrate. Particulars: read-out: Inhibitory Activity (IC50, nM) MAO-A. The method in brief:
as §1

The mark [4] stands for this setting: 1 mM putrescine, * = between 10 and 100 nM, ** = between 300 and 1000 nM.

Structures are written as SMILES. Counter-ions that a name gives are not always drawn. Like-named read-outs stand apart in the source and are kept apart here.

Take `CS(=O)(=O)c1ccc(-c2cccc(-c3cccc(-n4cnn(C/C(=C/F)CN)c4=O)c3)c2)cc1` [Example 67, 2-[(2E)-2-(aminomethyl)-3-fluoroprop-2-en-1-yl]-4-[4″-(methylsulfonyl)-1,1′:3′,1″-terphenyl-3-yl]-2,4-dihydro-3H-1,2,4-triazol-3-one]: the IC50 in assay [1] (1 mM benzylamine) is over 10000 nM; in assay [2] (setting [4]), 11 nM; at recombinant human VAP-1 (30 min preincubation at 37° C.), 0.77 nM; in assay [3] (0.5 mM tyramine) it was over 100000 nM.
Consider `COc1cc(-c2cccc(-n3cnn(C/C(=C/F)CN)c3=O)c2)ccn1` [Example 79, 2-[(2E)-2-(aminomethyl)-3-fluoroprop-2-en-1-yl]-4-[3-(2-methoxypyridin-4-yl)phenyl]-2,4-dihydro-3H-1,2,4-triazol-3-one hydrochloride], for which the half-inhibitory concentration (IC50) in assay [1] (1 mM benzylamine) is 7900 nM; in assay [2] (setting [4]) it was 2.2 nM; at recombinant human VAP-1 (30 min preincubation at 37° C.) it was 0.47 nM; in assay [3] (0.5 mM tyramine) it was over 100000 nM.
For the compound `CS(=O)(=O)c1ccc(-c2ccnc(-n3cnn(C/C(=C/F)CN)c3=O)c2)cc1` [Example 165, 2-[(2E)-2-(aminomethyl)-3-fluoroprop-2-en-1-yl]-4-{4-[4-(methylsulfonyl)phenyl]pyridin-2-yl}-2,4-dihydro-3H-1,2,4-triazol-3-one], the IC50 in assay [1] (1 mM benzylamine substrate) is over 10000 nM; in assay [2] (1 mM putrescine substrate), under 30 nM; on recombinant human VAP-1, 1.9 nM; in assay [3] (0.5 mM tyramine substrate), over 100000 nM.
Taken in the same sequence, the figures for `Cc1ccc(-c2ccc3c(c2)OCO3)nc1-n1cnn(C/C(=C/F)CN)c1=O` [Example 213, 2-[(2E)-2-(aminomethyl)-3-fluoroprop-2-en-1-yl]-4-[6-(1,3-benzodioxol-5-yl)-3-methylpyridin-2-yl]-2,4-dihydro-3H-1,2,4-triazol-3-one hydrochloride] were over 10000 nM, 1800 nM, 29 nM and over 100000 nM.
`NC/C(=C\F)Cn1ncn(-c2cccc(-c3ccc4sc(N)nc4c3)c2)c1=O` [Example 99, 4-[3-(2-amino-1,3-benzothiazol-5-yl)phenyl]-2-[(2E)-2-(aminomethyl)-3-fluoroprop-2-en-1-yl]-2,4-dihydro-3H-1,2,4-triazol-3-one hydrochloride]: the IC50 in assay [1] (1 mM benzylamine) was 6420 nM; in assay [2] (setting [4]), under 100 nM; on recombinant human VAP-1 (30 min preincubation at 37° C.), 0.82 nM; in assay [3] (0.5 mM tyramine), over 100000 nM.
With `NC/C(=C\F)Cn1ncn(-c2cccc(C#Cc3ccc(N4CCOCC4)nc3)n2)c1=O` [Example 249, 2-[(E)-2-(aminomethyl)-3-fluoro-allyl]-4-[6-[2-(6-morpholino-3-pyridyl)ethynyl]-2-pyridyl]-1,2,4-triazol-3-one], the IC50 in assay [1] (1 mM benzylamine substrate) is 2000 nM; in assay [2] (1 mM putrescine substrate), 8 nM; at recombinant human VAP-1, 0.4 nM; in assay [3] (0.5 mM tyramine substrate), over 100000 nM.
Taken in the same sequence, the figures for `NC/C(=C\F)Cn1ncn(-c2cccc(C#Cc3ccc4c(c3)CCC(=O)N4)n2)c1=O` [Example 254, 6-[2-[6-[1-[(E)-2-(aminomethyl)-3-fluoro-allyl]-5-oxo-1,2,4-triazol-4-yl]-2-pyridyl]ethynyl]-3,4-dihydro-1H-quinolin-2-one] were over 10000 nM, 35 nM, 0.2 nM and over 100000 nM.
Regarding `Cc1cc(-n2cnn(C/C(=C/F)CN)c2=O)ncc1Br` [Example 34, 2-[(2E)-2-(aminomethyl)-3-fluoroprop-2-en-1-yl]-4-(5-bromo-4-methylpyridin-2-yl)-2,4-dihydro-3H-1,2,4-triazol-3-one hydrochloride], the concentration for half-maximal inhibition (IC50) in assay [1] (1 mM benzylamine) amounted to 363 nM; in assay [2] (setting [4]), 13 nM; on recombinant human VAP-1 (30 min preincubation at 37° C.) it was 0.6 nM; in assay [3] (0.5 mM tyramine), 6100 nM.
Turning to `NC/C(=C\F)Cn1ncn(-c2cc(C#Cc3cccnc3)ccn2)c1=O` [Example 245, 2-[(2E)-2-(aminomethyl)-3-fluoroprop-2-en-1-yl]-4-[4-(pyridin-3-ylethynyl)pyridin-2-yl]-2,4-dihydro-3H-1,2,4-triazol-3-one hydrochloride], the IC50 in assay [1] (1 mM benzylamine substrate) is 300 nM; in assay [2] (1 mM putrescine substrate) it was 11 nM; on recombinant human VAP-1 it was 0.9 nM; in assay [3] (0.5 mM tyramine substrate) it was over 100000 nM.
Taken in the same sequence, the figures for `CC(=O)Nc1nc(Cc2ccc(-n3cnn(C/C(=C/F)CN)c3=O)cc2)cs1` [Example 235, hydrochloride] were 2580 nM, under 100 nM, 0.43 nM and over 100000 nM.
`COc1ccc(-c2ccc(C)c(-n3cnn(C/C(=C/F)CN)c3=O)n2)cn1` [Example 212, 2-[(2E)-2-(aminomethyl)-3-fluoroprop-2-en-1-yl]-4-(6′-methoxy-5-methyl-2,3′-bipyridin-6-yl)-2,4-dihydro-3H-1,2,4-triazol-3-one hydrochloride]: the 50% inhibitory concentration (IC50) in assay [1] (1 mM benzylamine substrate) was over 10000 nM; in assay [2] (1 mM putrescine substrate) it was 2200 nM; at recombinant human VAP-1, 45 nM; in assay [3] (0.5 mM tyramine substrate), over 100000 nM.
